Assays:
[1] = system: CD36^+/+ and CD36^−/− mice; test: Myocardial metabolic rate of glucose by μPET with [18F]-FDG; assay type: in vivo; settings: 6 hours reperfusion; in words
Experimental: Experimental model of IHD: Transient left coronary artery ligation in vivo. Mice were subjected to a transient LCAL surgery as described before, with minor modifications [Tarnayski et al., 2004]. Mice were injected i.p. with buprenorphine (0.05 mg/kg) and placed in an induction chamber with inhalation anesthesia comprised of 3% isoflurane mixed with 100% oxygen. Mice were intubated with a blunt ended 20-gauge catheter into the trachea via the mouth and mechanically ventilated at a tidal volume of 7 ml/kg at 130 respirations/min with a MiniVent™ mouse ventilator (model 845, Harvard Apparatus, Saint-Laurent, QC, Canada). Anesthesia was maintained with 1.5-2% isoflurane and the animals were kept warm using electrical heating pads during the surgical procedure. The chest was opened by a horizontal incision through the skin and muscle layers at the third intercostal space exposing the left side of the heart. […] Visual blanching distal to the coronary occlusion confirmed myocardial ischaemia. Lidocaine (6 mg/kg) was administered i.p. just following occlusion and prior to reperfusion. […]
Imaging Data Analysis. For [^11C]-acetate images, dynamic series of 25 frames each were sorted out whereas 27 frames were used for ^18FDG and ^18FTHA imaging, and were reconstructed and analyzed using multicompartmental analysis [Menard et al., 2009] or the Patlak method for FTHA [Patlak and Blasberg, 1985]. […]

AMPK = test: Western blot of left ventricle: phosphorylated AMPK to total AMPK; assay type: in vivo, mice
Experimental: Experimental model of IHD: Transient left coronary artery ligation in vivo. Mice were subjected to a transient LCAL surgery as described before, with minor modifications [Tarnayski et al., 2004]. Mice were injected i.p. with buprenorphine (0.05 mg/kg) and placed in an induction chamber with inhalation anesthesia comprised of 3% isoflurane mixed with 100% oxygen. Mice were intubated with a blunt ended 20-gauge catheter into the trachea via the mouth and mechanically ventilated at a tidal volume of 7 ml/kg at 130 respirations/min with a MiniVent™ mouse ventilator (model 845, Harvard Apparatus, Saint-Laurent, QC, Canada). Anesthesia was maintained with 1.5-2% isoflurane and the animals were kept warm using electrical heating pads during the surgical procedure. The chest was opened by a horizontal incision through the skin and muscle layers at the third intercostal space exposing the left side of the heart. […] Visual blanching distal to the coronary occlusion confirmed myocardial ischaemia. Lidocaine (6 mg/kg) was administered i.p. just following occlusion and prior to reperfusion. After 30 minutes, the PE10 tubing was removed allowing reperfusion. The lungs were reinflated and the chest wound closed layer by layer before extubation. […] Hearts were immediately frozen at −80° C. unless otherwise stated.
Western blot analysis. Total ventricular protein lysates were prepared as described previously [Bodart et al., 2002]. Left ventricles were homogenized in PBS containing a protease inhibitor cocktail (Roche Applied Science, Indianapolis, Ind., USA) and 1 mM sodium orthovanadate. Homogenates were incubated for 10 min on ice with an equal volume of lysis buffer (NaCl 300 mM, Tris-HCl 100 mM, 2% Triton X-100, 0.2% SDS, 50 mM NaF, 4 mM EDTA, 1 mM sodium orthovanadate and protein inhibitors, pH=7.5), and centrifuged at 14,000 g for 30 minutes at 4° C. The protein concentration of the su pernatant was determined by the bicinchoninic acid (BCA) protein assay (Pierce Biotechnology, Rockford, Ill., USA). Equal amounts (50 or 100 μg) of protein extracts were separated on 10% SDS-polyacrylamide gels and transferred electrophoretically to polyvinylidene difluoride (PVDF) membranes (Bio-Rad Laboratories, Hercules, Calif., USA) for immunoblotting. […] Antibody binding was detected by enhanced chemiluminescence using an alpha Imager™ (Alpha Innotech Corporation, San Leandro, Calif., USA). Quantification of the digital images obtained was performed using ImageQuant™ 5.2 software (Molecular Dynamics, Sunnyvale, Calif., USA).

HAIC-2MeDTrp-DLys-Trp-DPhe-Lys-NH2 [EP 80317]
myocardial metabolic rate of glucose (MMRG) [1]: not modulated
increase of P-AMPK to total AMPK band density ratio (AMPK; 6 hours reperfusion, CD36^+/+ mice, p<0.01): 121%
effect on P-AMPK/AMPK ratio (AMPK; 6 hours reperfusion, CD36^−/− mice, in words): no effect
P-AMPK/AMPK density ratio (AMPK; 48 hours reperfusion, CD36^+/+ mice, in words): tended to decrease
effect on AMPK phosphoprotein signal (AMPK; 48 hours reperfusion, genotype not printed in the sentence (FIG. 7D), in words): no significant effect
